Patent US20080167358A1, “Methods for Obtaining a Fast Dissolving Imidapril Powder” (priority 2005, published 2008)

Test: Dissolution time of a quantity corresponding to 75 mg of Imidapril in 30 ml of water at room temperature
Assay type: physicochemical
Conditions: quantity of formulation corresponding to 75 mg of Imidapril added to 30 ml of stirred water at room temperature
Procedure: This crystalline condition makes it possible to obtain a quick dissolution Imidapril powder, i.e., having a total dissolution time of the powder of 30 sec for a quantity of 75 mg of Imidapril in 30 ml of water at room temperature (25° C.). […] The apparent dissolution time is noted.

SMILES: CCOC(=O)[C@H](CCc1ccccc1)N[C@@H](C)C(=O)N1C(=O)N(C)C[C@H]1C(=O)O [Standard Imidapril, Imidapril]
- Time (s) (apparent dissolution time): 420 s
